Laboratory results taken from patent publication US8748097B1, “Identification of agents for treating calcium disorders and uses thereof” (President and Fellows of Harvard College, priority 2011, dated 2014).
Read-outs that look alike come from different tables or passages of the source.

How the values were obtained:
[1] = system: MC3T3-e1 cells
Method: FIG. 15. Basal and NBP-potentiated osteoblastic gene expression. shNA-mediated TBONE knockdown (TBONE—1 and TBONE—2) and transfection control (GFP) cells were treated with 10 nM Alendronte or vehicle and analyzed using real-time RT-PCR for mRNA expression of (A) TBONE, (B) osteocalcin (OC), and (C) bone sialoprotein (BSP).
Since NBPs and calcium potentially play an important role in regulating osteoblast function, studies were performed to evaluate the role of TBONE in osteoblast differentiation. For the experiment, wild-type and GFP positive MC3T3-e1 cells were transiently transfected with small-hairpin RNA (shRNA). GFP positive cells were treated with a shRNA designed to target and disrupt GFP expression (transfection control), while wild-type cells were treated with one of two shRNA constructs (TBONE—1 and TBONE—2) designed to target and disrupt expression of Apr3. The cells were then subjected to conditions for promoting osteoblast differentiation, 50 μg/ml ascorbic acid and 10 mM B-glycerophosphate for 2 weeks, and analyzed for extracellular calcium deposition using Alizarin Red or phosphate deposition using the Von Kossa method.
(§1) Briefly, GFP control and TBONE knockdown cells were generated and subjected to differentiation as described above. Following the two week incubation, cells were treated with 10 nM Alendronate (exemplary NBP) or vehicle and analyzed by real-time RT-PCR using TBONE, OC and BSP gene specific oligonucleotide primers (FIG. 15). Alkaline phosphatase activity was measured using a colorimetric based assay designed to indicate ALPL activity by changing color following the dephosphorylation of p-nitrophenyl phosphate (pNPP) (FIG. 16).

[2] = molecular target: HA tagged C2orf28 variant 2 (Homo sapiens, UniProt Q6UW56); settings: MC3T3-E1 pre-osteoblasts expressing HA tagged C2orf28 variant 2; 7504 fluorophore conjugated Alendronate
Method: Sub-cellular Localization. […] Cells were processed in an immunofluorescence assay.
Following incubation, the cells were washed, and processed in an immunofluorescence assay to detect HA and Alendronate, along with DAPI to visualize DNA content.
25,000-100,000 cells were plated on fibronectin-coated glass coverslips, fixed with 4% paraformaldehyde, and permeabilized with 0.2% Triton X-100. Permeabilized cells were blocked in 0.25% BSA PBS, incubated with primary antibody in blocking buffer overnight at 4° C. and subsequently incubated with secondary antibodies (diluted in blocking buffer 1:1000) for one hour at room temperature. 2-4×PBS washes were used in between all preceding steps. The coverslips were mounted on glass slides using Vectashield containing DAPI (Vector Laboratories) and imaged with 63× objective using epifluorescence microscopy.

[3] = system: HEK-293T; settings: HEK-293T with C2orf28 depletion using RNAi; data not shown
[4] = system: HDJ-2 prenylation; settings: indicated dose of Alendronate, 72 hours
Method: (§2) FIG. 8. Effect of Nitrogenous Bisphosphonates on Prenylation. Cells containing (WT) or lacking C2orf28 (C2orf28_GT2) were treated with Alendronate at the indicated dose ((−) indicates no Alendronate). After 72 hours the cells were analyzed by immunoblotting for the indicated proteins.
(§3) Therefore, to determine whether C2orf28 is involved with NBPs mediated protein prenylation, the inventors' monitored the prenylation of several known prenylated proteins including the heat shock protein DnaJ (Hsp40) homolog, HDJ-2, and the Ras family GTPase, Rapla. Cells containing or lacking C2orf28 were treated with the indicated dose of Alendronate for 72 hours then lysed and analyzed by immunoblotting for the indicated proteins.
(§4) Cells were pelleted by centrifugation at 9,000 rpm for 30 seconds, rinsed once with ice-cold PBS and lysed with Triton-X 100 containing lysis buffer (40 mM HEPES [pH 7.4], 2 mM EDTA, 150 mM NaCl, 50 mM NaF, 1% Triton-X 100, and one tablet of EDTA-free protease inhibitors [Roche] per 25 ml). The soluble fractions of cell lysates were isolated by centrifugation at 13,000 rpm for 10 minutes in a microcentrifuge. Lysate protein concentrations were normalized by Bradford assay (Bio-Rad). Proteins were then denatured by the addition of sample buffer and by boiling for 5 minutes, resolved using 4%-20% SDS-PAGE (Invitrogen), and analyzed by immunoblotting.

[5] = system: Rapla prenylation; settings: indicated dose of Alendronate, 72 hours
Method: as §2, §3, §4

[6] = system: cells containing or lacking C2orf28; settings: C2orf28 deficient vs C2orf28-complemented cells; 75 μM fluorophore conjugated H^3-labeled Alendronate plus 60 μM cold, 60 hours
Method: The volume was made up to 1 ml with distilled water and the solution incubated for 2 hours at room temperature with mixing.

[7] = system: alkaline phosphatase (ALPL); settings: TBONE deficient cells vs GFP control; 10 nM Alendronate
Method: as §1

[8] = system: KBM7 cells
Method: (§5) All measurements were performed in quadruplicate.
as §5

[9] = system: RAW 264.7 macrophages
Method: (§6) GFP positive cells were treated with a shRNA designed to target and disrupt GFP expression (transfection control), while wild-type cells were treated with one of two shRNA constructs (TBONE—1 and TBONE—2) designed to target and disrupt expression of Apr3.

[10] = system: RANKL mRNA in ST-2 osteoblast cells
Method: as §6

[11] = system: NFATc1 mRNA; assay: A23187-induced NFATc1 expression; format: cell-based; settings: C2orf28 deficient cells vs control; 1 μM A23187, 12 hours
Method: FIG. 13. A23187-induced NFATc1 Expression. Control and C2orf28 deficient cells were treated for 12 hours with 1 μM A23187. After 12 hours, relative levels of NFATc1 mRNA expression were measured.
Total RNA was isolated and reverse-transcription was performed from cells grown in the indicated conditions. The resulting cDNA was diluted in DNase-free water (1:20) followed by quantification by real-time PCR. Data is expressed as the ratio between the expression of the target gene to the housekeeping gene, 18s. Each treated sample was normalized to the level of the vehicle controls of the same cell type. The following primers were used for quantitative real-time PCR: […]

[12] = system: RAW 264.7 macrophages; assay: RANKL-mediated induction of TRAP activity in RAW 264.7 macrophages; format: cell-based; settings: TBONE knockdown RAW 264.7 macrophages; 50 ng/ml RANKL, 5 days
Description: In order to determine if TBONE plays a role in directly regulating osteoclastogensis, TBONE was knockdown in macrophages to evaluate its potential effect on RANKL stimulated differentiation; by monitoring lineage specific surface marker expression of the calcitonin receptor (CALCR), a well-established indicator of osteoclast activity (J. Lam et al., (2000) J Clin Invest: 106, 1481; D. L. Lacey et al., (1998), Cell: 93, 165; and C. Minkin, (1982), Calcif Tissue Int: 34, 285; all of which are hereby incorporated by reference). Briefly, wild-type and GFP positive RAW 264.7 macrophages cells were transiently transfected with shRNA to knockdown GFP and Arp3 as described above. The cells were treated with 50 ng/ml RANKL for 5 days. […] Second, cells were analyzed for tartrate-resistant acid phosphatase (TRAP) activity.

[13] = TBONE deficient cells vs GFP control, 10 nM Alendronate
[14] = C2orf28 deficient cells (C2orf28_GT2)

Sequence of HA tagged C2orf28 variant 2 (Q6UW56 1-284 isoform Q6UW56-3): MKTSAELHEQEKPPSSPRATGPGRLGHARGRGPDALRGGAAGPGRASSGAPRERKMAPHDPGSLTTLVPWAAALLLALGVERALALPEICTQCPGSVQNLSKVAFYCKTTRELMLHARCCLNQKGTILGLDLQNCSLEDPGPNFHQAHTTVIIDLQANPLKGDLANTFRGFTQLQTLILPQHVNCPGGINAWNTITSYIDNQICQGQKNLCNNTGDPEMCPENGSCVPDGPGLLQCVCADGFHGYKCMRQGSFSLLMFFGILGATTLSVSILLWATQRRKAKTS

Molecule: NCCCC(O)(P(=O)(O)O)P(=O)(O)O [Alendronate]
- Relative TBONE mRNA expression ([1]; GFP control cells, 10 nM Alendronate vs vehicle): increase in relative TBONE expression
- NBP-stimulated gene expression of bone sialoprotein (BSP) [1, 13]: fail to demonstrate an increase in basal or NBP-stimulated gene expression
- NBP-stimulated gene expression of osteocalcin (OC) [1, 13]: fail to demonstrate an increase in basal or NBP-stimulated gene expression
- NBP-stimulated induction of TBONE mRNA ([1]; TBONE knockdown cells (TBONE—1 and TBONE—2), 10 nM Alendronate): fail to demonstrate a NBP-stimulated induction of TBONE
- Colocalization of Alendronate and C2orf28 co-staining [2]: high degree of colocalization
- Anti-proliferative effects [3]: strong resistance
- HDJ-2 prenylation [4, 14]: no effect
- HDJ-2 prenylation ([4]; cells containing C2orf28 (WT)): impaired both HDJ-2 and Rapla prenylation in a dose dependent manner
- Rapla prenylation [5, 14]: no effect
- Rapla prenylation ([5]; cells containing C2orf28 (WT)): impaired both HDJ-2 and Rapla prenylation in a dose dependent manner
- Cellular Alendronate accumulation [6]: altered cellular Alendronate accumulation
- NBP-stimulated ALPL (alkaline phosphatase activity) [7]: fail to demonstrate an increase in basal or NBP-stimulated gene expression
- Cell viability (cellular ATP, ratio to untreated cells) ([8]; C2orf28_GT2 cells expressing C2orf28 variant 2 lacking the transmembrane domain, 0, 60 or 9004, 72 hours): resistant
- Cell viability (cellular ATP, ratio to untreated cells) ([8]; C2orf28_GT2 cells expressing full-length C2orf28 variant 2, 0, 60 or 9004, 72 hours): sensitive
- Cell viability (cellular ATP, ratio to untreated cells) ([8]; C2orf28 mutant cells with exogenous C2orf28 variant 2 or variant 3, 60 μM, 72 hours): as sensitive to Alendronate as wild-type KBM7 cells
- Vitamin D stimulated osteoclastogenesis (TRAP activity) ([9]; ST-2 cells treated with 100 nM Vitamin D and Alendronate, co-cultured with RAW 264.7 macrophages): reduced TRAP activity
- RANKL mRNA induction by Vitamin D ([10]; wild-type ST-2 cells, 100 nM Vitamin D plus increasing concentration of Alendronate, vs control): impaired RANKL mRNA induction by Vitamin D, in a dose dependent fashion

Molecule: Vitamin D
- Vitamin D stimulated osteoclastogenesis (TRAP activity) ([9]; TBONE knockdown ST-2 cells co-cultured with RAW 264.7 macrophages, 100 nM Vitamin D): largely blocked
- RANKL mRNA induction by Vitamin D ([10]; TBONE knockdown ST-2 cells (TBONE—1 and TBONE—2) vs GFP control, 100 nM Vitamin D): impaired RANKL mRNA induction

Molecule: CNc1ccc2oc(C[C@H]3O[C@@]4(CC[C@H]3C)O[C@H]([C@H](C)C(=O)c3ccc[nH]3)[C@H](C)C[C@H]4C)nc2c1C(=O)O [A23187]
- A23187-induced NFATc1 gene expression [11]: defective

B1: RANKL: regulatory molecule stimulating osteoclast differentiation and function (protein, UniProt O14788 140-317, looked up)
Tumor necrosis factor ligand …: IRAEKAMVDGSWLDLAKRSKLEAQPFAHLTINATDIPSGSHKVSLSSWYHDRGWAKISNMTFSNGKLIVNQDGFYYLYANICFRHHETSGDLATEYLQLMVYVTKTSIKIPSSHTLMKGGSTKYWSGNSEFHFYSINVGGFFKLRSGEEISIEVSNPSLLDPDQDATYFGAFKVRDID
- RANKL-mediated TRAP activity [12]: strongly impairs
